Data taken from ChEMBL document CHEMBL1125668, “Synthesis and anti-HIV activity of 2-, 3-, and 4-substituted analogues of 1-[(2-hydroxyethoxy)methyl]-6-(phenylthio)thymine (HEPT)” (J Med Chem, 1991).

Experiments:
[1] = test system: Human immunodeficiency virus 1; assay: Inhibitory activity against HIV-1 (HTLV-IIIB strain) replication in MT-4 cells; type: functional, organism-based; conditions: Human immunodeficiency virus 1, MT4
[2] = test system: Human immunodeficiency virus 1; assay: Cytotoxic concentration of compound required to reduce the viability of mock infected MT-4 cells against the HIV-1 (HTLV-IIIB)induced cytopathic effect; type: functional; conditions: Human immunodeficiency virus 1, MT4
[3] = test system: Human immunodeficiency virus 2; assay: Inhibitory activity against HIV-2(LAV-2ROD strain) replication in MT-4 cells; type: functional, organism-based; conditions: Human immunodeficiency virus 2, MT4
[4] = test system: Human immunodeficiency virus 1; assay: Inhibitory activity against HIV-1 (HTLV-IIIB strain) replication in peripheral blood lymphocytes; type: functional, organism-based
[5] = test system: Human immunodeficiency virus 2; assay: Inhibitory activity against HIV-2(LAV-2EHO strain) replication in MT-4 cells; type: functional, organism-based; conditions: Human immunodeficiency virus 2, MT4
[6] = test system: Human immunodeficiency virus 1; assay: Cytotoxic concentration of compound required to incorporate [5-3H]-Urd into RNA of mock infected peripheral blood lymphocytes in HIV-1 (HTLV-IIIB)by 50%; type: functional
[7] = test system: Human immunodeficiency virus 1; assay: Inhibitory activity against HIV-1 (HTLV-IIIRF strain) replication in MT-4 cells; type: functional, organism-based; conditions: Human immunodeficiency virus 1, MT4

EC50 [1] [µM] | Structure (SMILES) | CC50 [2] [µM] | EC50 [3] [µM] | EC50 [4] [µM] | EC50 [5] [µM] | CC50 [6] [µM] | EC50 [7] [µM]
> 198 | O=c1cc(Sc2ccccc2)n(COCCO)c(=S)[nH]1 | 198 |  |  |  |  | 
> 250 | Nc1cc(Sc2ccccc2)n(COCCO)c(=O)n1 | > 250 |  |  |  |  | 
> 27 | Cc1c(Sc2ccccc2)n(COCCO)c(=O)[nH]c1=S | 27 |  |  |  |  | 
> 91 | Cc1c(N)nc(=O)n(COCCO)c1Sc1ccccc1 | 91 |  |  |  |  | 
> 4.1 | O=c1[nH]c(=S)cc(Sc2ccccc2)n1COCCO | 4.1 |  |  |  |  | 
0.98 | Cc1c(Sc2ccccc2)n(COCCO)c(=S)[nH]c1=O | 123 | > 100 | 2.9 | > 100 | 292 | 2.5

The next lines start with the compound.

Structure (SMILES) | EC50 [1] [µM] | CC50 [2] [µM] | EC50 [3] [µM] | EC50 [4] [µM] | EC50 [5] [µM] | CC50 [6] [µM] | EC50 [7] [µM]
Nc1ncnc2c1ncn2[C@H]1CC[C@@H](CO)O1 | 6.3 | > 500 | 7.2 |  |  |  | 
Cc1c(Sc2ccccc2)n(COCCO)c(=O)n(C)c1=O | > 374 | > 374 |  |  |  |  | 
Cc1c(Sc2ccccc2)n(COCCO)c(=O)n(Cc2ccccc2)c1=O | > 40 | 40 |  |  |  |  | 
Cc1c(Sc2ccccc2)n(COCCO)c(=O)[nH]c1=O [HEPT] | 7 | 740 | > 250 | 7.9 | > 250 | 640 | 8.1
Cc1cn([C@H]2C[C@H](N=[N+]=[N-])[C@@H](CO)O2)c(=O)[nH]c1=O [ZIDOVUDINE] | 0.003 | 7.8 | 0.0028 |  |  |  | 
